What was measured:
S. thermophilus LMD-9 = test: Natural transformation in CDM upon addition of synthetic peptide; assay type: cell-based, Streptococcus thermophilus
Procedure: Similarly to the protocol used in example 4, strains LMD-9, LMG18311, CNRZ1066 and JIM8777 were pre-cultivated in M17-lactose medium. The cells of the precultures were harvested (5000 g, 9 minutes, 20° C.) and washed twice in CDM and then resuspended in CDM. The washed cells were diluted in fresh CDM medium to obtain an optical density of 0.05, and then incubated at 37° C. After 1.5 h of incubation, in one set of experiment, 1 μM of one of the tested synthetic peptides and 1 μg/mL of pGIUD0855ery DNA (in case of S. thermophilus strains), or 1 μg/ml of pG+host09 DNA (in case of S. salivarius strains) were added to the culture, whereas 1 μg/mL of DNA but no synthetic peptide was added to the second set of experiment. The cultures were grown during 6 hours and serial dilutions were plated on the surface of M17-lactose agar medium containing 2.5 μg/mL of erythromycin to measure transformation efficiency. Transformed S. thermophilus and S. salivarius cells are selected at 37° C. and 29° C., respectively.
Similarly to the protocol used in example 4, various S. thermophilus strains, including LMD-9, CNRZ1066 and LMG18311 used as controls, were pre-cultivated in M17-lactose medium. The cells of the precultures were harvested (5000 g, 9 minutes, 20° C.) and washed twice in CDM and then resuspended in CDM. The washed cells were diluted in fresh CDM medium to obtain an optical density of 0.05, and then incubated at 37° C. After 1.5 h of incubation, in one set of experiment, 1 μM of one of the tested synthetic peptides (LPYFAGCL) (SEQ ID NO: 85) and 1 μg/mL of pGIUD0855cat DNA were added to the culture, whereas 1 μg/mL of DNA but no synthetic peptide was added to the second set of experiment. Plasmid pGIUD0855cat is a pUC18-derivative containing a chloramphenicol resistance cassette flanked by 1-kb fragments corresponding to the upstream and downstream regions of stu0855. Upon transformation, it promotes the genetic replacement of stu0855 by P32-cat through homologous recombination (FIG. 7). The cultures were grown during 6 hours and serial dilutions were plated on the surface of M17-lactose agar medium containing 5 μg/mL of chloramphenicol to measure transformation efficiency. Transformed S. thermophilus cells were selected at 37° C.; when transformants were obtained, the transformation efficiency was calculated and is given in Table 9.
The overlapping PCR product was transferred through natural competence in strain LMD-9. Similarly to the protocol used in example 4, strain LMD-9 was pre-cultivated in M17-lactose medium. The cells of the precultures were harvested (5000 g, 9 minutes, 20° C.) and washed twice in CDM and then resuspended in CDM. The washed cells were diluted in fresh CDM medium to obtain an optical density of 0.05, and then incubated at 37° C. After 1.5 hour of incubation, 1 μM of LPYFAGCL (SEQ ID NO: 85) synthetic peptide and 1 μg/mL of the PCR product prepared above (joining the A, B and C fragments) were added to the culture. After the DNA uptake by the bacteria, the P32-cat cassette flanked by the two lox sites spontaneously replaces the his operon by double homologous recombination (FIG. 10). The transformation rate of the overlapping PCR was 1.1×10^−6 (160 Chloramphenicol-resistant CFU/mL). One isolate named CB15 was selected. […]

[1] = test system: LMD9-Δblp::PcomX-luxABΔshp316::P32-cat; test: Natural transformation in CDM of the shp316-deleted strain upon addition of synthetic peptides (test A); assay type: cell-based, Streptococcus thermophilus; conditions: for Transformation rate, With peptide addition / Restoration of the competence defect: 1 μM synthetic peptide; for Transformation rate, With peptide addition / Transformation rate: 1 μg/mL pGIUD0855ery; for Transformation rate, With peptide addition: CDM, erythromycin selection
Procedure: A mutant strain of LMD-9 in which the shp316 gene (which is the gene encoding the peptide Shp316) has been inactivated, such as strain LMD9-Δblp::PcomX-luxABΔshp316::P32-cat (see Example 2 for details on this strain) is pre-cultivated in M17-lactose medium. The cells of the preculture are harvested (5000 g, 9 minutes, 20° C.) and washed twice in Chemically Defined Medium (CDM, see Annex I) and then resuspended in CDM. The washed cells are diluted in fresh CDM medium to obtain an optical density of 0.05 at 600 nm, and then incubated at 37° C. After 1.5 h of incubation, the culture is separated in 2 aliquots of 10 mL and 0 or 1000 nM of peptide are added in the culture samples. Finally, each 10 mL-aliquot is divided in 2 samples of 5 mL each. One of the 2 samples receives 1 μg/mL pGIUD0855ery, a plasmid bearing an erythromycin resistance gene. The competence phenotype of the samples is studied by performing natural transformation experiments as described in example 1. The cultures are grown for 6 hours and serial dilutions are plated on the surface of M17-lactose agar medium containing or not 2.5 μg/mL of erythromycin. The transformation rate in the presence or absence of peptide is calculated for each sample; it is expressed as the ratio of erythromycin-resistant cells among the total bacterial population.
The experimental strategy is described below. Strain LMD9-Δblp::PcomX-luxABΔshp316::P32-cat is precultivated in M17-lactose medium. The cells of the preculture were harvested (5000 g, 9 minutes, 20° C.) and washed twice in CDM and then resuspended in CDM. The washed cells are diluted in fresh CDM to obtain an optical density of 0.05 at 600 nm, and then incubated at 37° C. After 1.5 h of incubation, in one set of experiment, 1 μM of one of the tested synthetic peptides and 1 μg/mL of pGIUD0855ery were added to the culture; whereas 1 μg/mL of pGIUD0855ery but no synthetic peptide was added to the second set of experiment. The cultures were grown during 6 hours and serial dilutions were plated on the surface of M17-lactose agar medium containing 2.5 μg/mL of erythromycin to measure transformation efficiency.
Ability of peptides derived from Shp316 to restore the competence defect of LMD9-Δblp::PcomX-luxABΔshp316::P32-cat was further investigated focusing on the synthetic peptide PYFAGCL. Experimental work was performed as described above except that various concentrations of PYFAGCL were used: 0 nM, 1 nM, 10 nM, 100 nM, 500 nM, 1 μM, 2.5 μM and 5 μM. […]

| Substance | Chloramphenicol-resistant CFU obtained with the overlapping PCR (S. thermophilus LMD-9; 1 μM LPYFAGCL, 1 μg/mL overlapping PCR product) [CFU/mL] | Transformation rate of the overlapping PCR (S. thermophilus LMD-9; 1 μM LPYFAGCL, 1 μg/mL overlapping PCR product (his operon replacement by lox66-P32cat-lox71)) | Transformation rate, With peptide addition (S. thermophilus LMD-9; 1 μM LPYFAGCL, 1 μg/mL pUC18_stu0855::P32cat, chloramphenicol selection) | Transformation rate, With peptide addition [1] | Restoration of the competence defect ([1]; result in words) | Transformation rate, With peptide addition (S. thermophilus LMD-9; 1 μM PYFAGCL, 1 μg/mL pGIUD0855ery) | Increase of natural competence upon extracellular peptide addition (S. thermophilus LMD-9; 1 μM peptide in CDM versus no peptide) [fold] | Transformation rate ([1]; 1 nM PYFAGCL) | Transformation rate ([1]; 10 nM PYFAGCL) | Transformation rate ([1]; 100 nM PYFAGCL) | Transformation rate ([1]; 500 nM PYFAGCL) | Transformation rate ([1]; 1000 nM PYFAGCL) | Transformation rate ([1]; 2500 nM PYFAGCL) | Transformation rate ([1]; 5000 nM PYFAGCL) | Restoration of competence ([1]; concentrations lower than 100 nM, result in words) | Concentration at which maximum efficiency of the peptide was recorded ([1]; dose-response 0 nM to 5 μM) [µM] |
| --- | --- | --- | --- | --- | --- | --- | --- | --- | --- | --- | --- | --- | --- | --- | --- | --- |
| LPYFAGCL (fragment) [synthetic peptide corresponding to a C-terminal fragment of Shp316] | 160 | 1.1×10^−6 | 5.4 × 10^−3 | 3.18 × 10^−3 | allowed to restore the competence defect |  |  |  |  |  |  |  |  |  |  |  |
| PYFAGCL (fragment) |  |  |  | 4.78 × 10^−3 | allowed to restore the competence defect | 3.10 × 10^−3 | 10 | <10^−8 | <10^−8 | 4.14 × 10^−7 | 1.01 × 10^−3 | 5.15 × 10^−3 | 3.10 × 10^−3 | 6.38 × 10^−3 | did not restore the competence | 1 |
